Drawing on patent US11478461B2, “[1.1.1] bicyclo compounds as indoleamine 2,3-dioxygenase inhibitors” (Merck Sharp & Dohme Corp., priority 2018, dated 2022), this text covers IC50 for 33 molecules.

Some results are limits rather than exact numbers.

The target of the test is IDO1 (Homo sapiens, UniProt P14902). The experiment in a line: IDO1 Cellular Assay in Hela Cells Stimulated with IFNγ. The class given is cell-based. The settings on record: IFNγ 100 ng/mL, 300 uM L-tryptophan, about 48 hours, fluorescence readout, read-out: IDO1 HELA Cell Assay, IC50. The method, boiled down: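 HeLa cells stimulated with 100 ng/mL IFNγ, supplemented with 300 uM L-tryptophan, incubated 48 h at 37° C with ten 3-fold compound dilutions. Unstimulated cells served as Max-E control. Kynurenine detected by fluorescence (ex 400/em 510 nm) after overnight methyl isonipecotate reaction; IC50 by four-parameter logistic fit.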
IDO1, sequence (P14902 whole entry): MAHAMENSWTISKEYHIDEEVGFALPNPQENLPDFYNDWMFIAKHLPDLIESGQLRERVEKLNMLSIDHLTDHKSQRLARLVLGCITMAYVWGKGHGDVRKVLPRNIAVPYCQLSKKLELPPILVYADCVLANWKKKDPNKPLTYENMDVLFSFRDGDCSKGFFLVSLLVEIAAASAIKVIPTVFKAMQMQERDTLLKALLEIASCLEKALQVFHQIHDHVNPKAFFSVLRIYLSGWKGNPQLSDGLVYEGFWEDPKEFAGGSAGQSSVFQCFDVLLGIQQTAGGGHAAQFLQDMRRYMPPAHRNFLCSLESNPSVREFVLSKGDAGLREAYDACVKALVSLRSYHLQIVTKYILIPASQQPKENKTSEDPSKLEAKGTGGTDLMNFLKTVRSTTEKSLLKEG

For orientation: IC50 means the concentration at which inhibition is half-maximal. On to `C[C@@H](C(=O)Nc1ccc(F)cc1)C12CC(NC(=O)c3cccc(C(F)(F)F)c3)(C1)C2` [Example 42, N-[3-[(1R)-2-(4-fluoroanilino)-1-methyl-2-oxo-ethyl]-1-bicyclo[1.1.1]pentanyl]-3-(trifluoromethyl)benzamide], for which the IC50 was 5.02 nM. For `C[C@H](C(=O)Nc1ccc(F)cc1)C12CC(NC(=O)c3ccc4ccccc4c3)(C1)C2` [Example 148, (S)-N-(3-(1-((4-fluorophenyl)amino)-1-oxopropan-2-yl)bicyclo[1.1.1]pentan-1-yl)-2-naphthamide], the IC50 turned out to be 19.7 nM.

As to `Cc1cncc(C(=O)NC23CC(C(C)C(=O)Nc4ccc(F)cc4)(C2)C3)c1` (stereo not drawn) [Example 122, N-[3-[2-(4-fluoroanilino)-1-methyl-2-oxo-ethyl]-1-bicyclo[1.1.1]pentanyl]-5-methyl-pyridin-1-ium-3-carboxamide], the IC50 is 132 nM.

In the case of `Cc1nc(C)c(C(=O)NC23CC(C(C)C(=O)Nc4ccc(F)cc4)(C2)C3)s1` (stereo not drawn) [Example 136, N-[3-[2-(4-fluoroanilino)-1-methyl-2-oxo-ethyl]-1-bicyclo[1.1.1]pentanyl]-2,4-dimethyl-thiazole-5-carboxamide], the IC50 is 318 nM. Consider `O=C(NC1(C23CC(NC(=O)c4cc(C(F)F)ccn4)(C2)C3)CC1)c1ccc(F)cc1` [Example 27, 4-(difluoromethyl)-N-(3-(1-(4-fluorobenzamido)cyclopropyl)bicyclo[1.1.1]pentan-1-yl)picolinamide], for which the IC50 was found to be 104 nM. In the case of `C[C@H](C(=O)Nc1ccc(F)cc1)C12CC(NC(=O)c3ccc(Cl)c(F)c3)(C1)C2` [Example 47, 4-chloro-3-fluoro-N-[3-[(1S)-2-(4-fluoroanilino)-1-methyl-2-oxo-ethyl]-1-bicyclo[1.1.1]pentanyl]benzamide] it was 152 nM; in that of `CC(C(=O)Nc1ccc(F)cc1)C12CC(NC(=O)c3ccn4ccccc34)(C1)C2` (stereo not drawn) [Example 127, N-[3-[2-(4-fluoroanilino)-1-methyl-2-oxo-ethyl]-1-bicyclo[1.1.1]pentanyl]indolizine-1-carboxamide], 186 nM. As to `CC(C(=O)Nc1ccc(Cl)cc1)C12CC(NC(=O)c3cccc(Cl)c3)(C1)C2` (single isomer, unassigned) [Example 6, 3-Chloro-N-(3-(1-((4-chlorophenyl)amino)-1-oxopropan-2-yl)bicyclo [1.1.1]pentan-1-yl) Benzamide], the IC50 came to 38.6 nM. On to `Cc1ccc(C(=O)NC23CC([C@@H](C)C(=O)Nc4ccc(F)cc4)(C2)C3)cc1Cl` [Example 44, 3-chloro-N-[3-[(1R)-2-(4-fluoroanilino)-1-methyl-2-oxo-ethyl]-1-bicyclo[1.1.1]pentanyl]-4-methyl-benzamide], for which the IC50 amounted to 2.28 nM. For the molecule `C[C@H](C(=O)Nc1cncc(Cl)c1)C12CC(NC(=O)c3ccc(Cl)c(Cl)c3)(C1)C2` [Example 94, (S)-3-chloro-5-(2-(3-(3,4-dichlorobenzamido)bicyclo[1.1.1]pentan-1-yl)propanamido)pyridin-1-ium 2,2,2-trifluoroacetate], the IC50 was 7.78 nM. Consider `C[C@H](C(=O)Nc1ccc(F)cc1)C12CC(NC(=O)Nc3ccc(F)c(F)c3)(C1)C2` [Example 82, (S)-2-(3-(3-(3,4-difluorophenyl)ureido)bicyclo[1.1.1]pentan-1-yl)-N-(4-fluorophenyl)propanamide], for which the IC50 is 30.3 nM.

With `CC(C(=O)Nc1ccc(F)cc1)C12CC(NC(=O)c3cccc4c3CC(=O)N4)(C1)C2` (stereo not drawn) [Example 121, N-[3-[2-(4-fluoroanilino)-1-methyl-2-oxo-ethyl]-1-bicyclo[1.1.1]pentanyl]-2-oxo-indoline-4-carboxamide], the IC50 was found to be 131 nM. In the case of `Cc1cccc(C(=O)NC23CC(C(C)C(=O)Nc4ccc(F)cc4)(C2)C3)n1` (stereo not drawn) [Example 119, N-[3-[2-(4-fluoroanilino)-1-methyl-2-oxo-ethyl]-1-bicyclo[1.1.1]pentanyl]-6-methyl-pyridin-1-ium-2-carboxamide] it was 113 nM; in that of `CC(C(=O)Nc1ccc(F)cc1)C12CC(NC(=O)c3cccc4cncn34)(C1)C2` (stereo not drawn) [Example 111, N-[3-[2-(4-fluoroanilino)-1-methyl-2-oxo-ethyl]-1-bicyclo[1.1.1]pentanyl]imidazo[1,5-a]pyridin-2-ium-5-carboxamide], 34.2 nM; in that of `CC(C(=O)Nc1ccc(F)cc1)C12CC(NC(=O)c3cccn4nncc34)(C1)C2` (stereo not drawn) [Example 143, N-[3-[2-(4-fluoroanilino)-1-methyl-2-oxo-ethyl]-1-bicyclo[1.1.1]pentanyl]triazolo[1,5-a]pyridin-1-ium-4-carboxamide], 448 nM. On to `C[C@H](C(=O)Nc1ccc(F)cc1)C12CC(NC(=O)c3cncc(Cl)c3)(C1)C2` [Example 59, 5-chloro-N-[3-[(1S)-2-(4-fluoroanilino)-1-methyl-2-oxo-ethyl]-1-bicyclo[1.1.1]pentanyl]pyridin-1-ium-3-carboxamide], for which the IC50 was found to be 6.52 nM.

Take `C[C@H](C(=O)Nc1ccc(F)cc1)C12CC(NC(=O)Nc3ccc(F)cc3)(C1)C2` [Example 85, (S)-N-(4-fluorophenyl)-2-(3-(3-(4-fluorophenyl)ureido)bicyclo [1.1.1]pentan-1-yl)propanamide]: the IC50 was found to be 73.2 nM. Under `C[C@@H](C(=O)Nc1ccc(F)cc1)C12CC(NC(=O)OC(C)(C)C)(C1)C2` (single isomer, unassigned) [Example 31] stands greater than 10000 nM. Under `C[C@@H](C(=O)Nc1cnc(Cl)c(F)c1)C12CC(NC(=O)c3ccc(Cl)c(Cl)c3)(C1)C2` [Example 89, (R)-3,4-dichloro-N-(3-(1-((6-chloro-5-yl)amino)-1-oxopropan-2-yl)bicyclo[1.1.1]pentan-1-yl)benzamide] stands 65.4 nM; under `CC(C(=O)Nc1ccc(F)cc1)C12CC(NC(=O)c3cccc(OC(F)(F)F)c3)(C1)C2` (stereo not drawn) [Example 109, N-[3-[2-(4-fluoroanilino)-1-methyl-2-oxo-ethyl]-1-bicyclo[1.1.1]pentanyl]-3-(trifluoromethoxy)benzamide], 11.2 nM. In the case of `C[C@H](C(=O)Nc1cccc(C(F)(F)F)c1)C12CC(NC(=O)c3ccc(Cl)c(Cl)c3)(C1)C2` [Example 99, (S)-3,4-dichloro-N-(3-(1-oxo-1-((3-(trifluoromethyl)phenyl)amino)propan-2-yl)bicyclo[1.1.1]pentan-1-yl)benzamide], the IC50 worked out at 111 nM. In the case of `C[C@@H](C(=O)Nc1ccc(F)cc1)C12CC(NC(=O)c3ccc(F)c(Cl)c3)(C1)C2` [Example 35, 3-chloro-4-fluoro-N-[3-[(1R)-2-(4-fluoroanilino)-1-methyl-2-oxo-ethyl]-1-bicyclo[1.1.1]pentanyl]benzamide] it was 122 nM; in that of `CC(C(=O)Nc1ccc(F)cc1)C12CC(NC(=O)c3ccccn3)(C1)C2` (stereo not drawn) [Example 129, N-[3-[2-(4-fluoroanilino)-1-methyl-2-oxo-ethyl]-1-bicyclo[1.1.1]pentanyl]pyridin-1-ium-2-carboxamide], 232 nM. For the molecule `CCc1cc(C(=O)NC23CC(C(C)C(=O)Nc4ccc(F)cc4)(C2)C3)n(C)n1` (stereo not drawn) [Example 141, 5-ethyl-N-[3-[2-(4-fluoroanilino)-1-methyl-2-oxo-ethyl]-1-bicyclo[1.1.1]pentanyl]-2-methyl-pyrazole-3-carboxamide], the IC50 amounted to 415 nM. As to `CC(C(=O)Nc1ccc(Cl)cc1)C12CC(NC(=O)OC3CC3)(C1)C2` (single isomer, unassigned) [Example 19, Cyclopropyl (3-(1-((4-chlorophenyl)amino)-1-oxopropan-2-yl)bicyclo [1.1.1]pentan-1-yl) carbamate], the IC50 worked out at 564 nM. As to `C[C@@H](C(=O)Nc1ccc(C(F)(F)F)cc1)C12CC(NC(=O)c3ccc(Cl)c(Cl)c3)(C1)C2` [Example 92, (R)-3,4-dichloro-N-(3-(1-oxo-1-((4-(trifluoromethyl)phenyl)amino)propan-2-yl)bicyclo[1.1.1]pentan-1-yl)benzamide], the IC50 turned out to be 6.43 nM. With `Cc1cc(C(=O)NC23CC(C(C)C(=O)Nc4ccc(F)cc4)(C2)C3)n(C)n1` (stereo not drawn) [Example 139, N-[3-[2-(4-fluoroanilino)-1-methyl-2-oxo-ethyl]-1-bicyclo[1.1.1]pentanyl]-2,5-dimethyl-pyrazole-3-carboxamide], the IC50 is 396 nM. For `C[C@H](C(=O)Nc1cnc(Cl)c(Cl)c1)C12CC(NC(=O)c3ccc(Cl)c(Cl)c3)(C1)C2` [Example 93, (S)-3,4-dichloro-N-(3-(1-((5,6-dichloropyridin-3-yl)amino)-1-oxopropan-2-yl)bicyclo[1.1.1]pentan-1-yl)benzamide], the IC50 stood at 105 nM.

Take `C[C@@H](C(=O)Nc1cnc(Cl)nc1)C12CC(NC(=O)c3ccc(Cl)c(Cl)c3)(C1)C2` [Example 90, (R)-3,4-dichloro-N-(3-(1-((2-chloropyrimidin-5-yl)amino)-1-oxopropan-2-yl)bicyclo[1.1.1]pentan-1-yl)benzamide]: the IC50 came out at 118 nM.

On to `CC(C(=O)Nc1ccc(F)cc1)C12CC(NC(=O)c3cc4ccccn4c3)(C1)C2` (stereo not drawn) [Example 116, N-[3-[2-(4-fluoroanilino)-1-methyl-2-oxo-ethyl]-1-bicyclo[1.1.1]pentanyl]indolizine-2-carboxamide], for which the IC50 worked out at 69.2 nM. On to `O=C(NC12CC(C3(NC(=O)c4ccc(F)cc4)CC3)(C1)C2)OCc1ccccc1` [Example 23, Benzyl (3-(1-(4-fluorobenzamido)cyclopropyl)bicyclo[1.1.1]pentan-1-yl)carbamate], for which the IC50 turned out to be 107 nM. For the molecule `Cc1ccc(C(=O)NC23CC([C@H](C)C(=O)Nc4ccc(F)cc4)(C2)C3)cc1F` [Example 58, 3-fluoro-N-[3-[(1S)-2-(4-fluoroanilino)-1-methyl-2-oxo-ethyl]-1-bicyclo[1.1.1]pentanyl]-4-methyl-benzamide], the IC50 was determined as 16.6 nM. As for `C[C@H](C(=O)Nc1ccc(F)cc1)C12CC(NC(=O)c3ccc(F)c(F)c3)(C1)C2` [Example 69, (S)-3,4-Difluoro-N-(3-(1-((4-fluorophenyl)amino)-1-oxopropan-2-yl)bicyclo[1.1.1]pentan-1-yl)benzamide], the 50% inhibitory concentration (IC50) was determined as 23.6 nM.
